# Measured values from patent US20050159345A1 (Boehringer Ingelheim International GmbH, priority 2002, published 2005).
# What was measured:
# [1] = tested on: GBV-B; assay: Inhibition of GBV-B replication in tamarin hepatocytes in culture; format: cell-based
# Description: Hepatocytes isolated from uninfected tamarins were maintained in culture in defined medium for several days. The cell culture model was as described by Beames et al. 2000. Three days after plating, the cells were infected with GBV-B-containing plasma. After viral adsorption, the virus was removed and the cells were incubated in the presence and absence of candidate test compounds at a concentration of 10 μM. The cells were harvested 7 days post infection. The levels of GBV-B RNA were quantitated from total cellular RNA by a real-time PCR assay using a primer-probe combination that recognized a portion of the GBV-B capsid gene (Beames et al. 2000).
# [2] = biological target: T1, HCV genotype 3a NS3-NS4A protease (UniProt Q81258); assay: Inhibition constant (Ki) determination, genotype 3a; format: biochemical; conditions: read-out: Ki HCV genotype 3a
# T1 construct: fused on or other part: 28 extra N-terminal residues with a hexahistidine tag and an rTEV cleavage site
# T1 sequence (Q81258 1033-1663): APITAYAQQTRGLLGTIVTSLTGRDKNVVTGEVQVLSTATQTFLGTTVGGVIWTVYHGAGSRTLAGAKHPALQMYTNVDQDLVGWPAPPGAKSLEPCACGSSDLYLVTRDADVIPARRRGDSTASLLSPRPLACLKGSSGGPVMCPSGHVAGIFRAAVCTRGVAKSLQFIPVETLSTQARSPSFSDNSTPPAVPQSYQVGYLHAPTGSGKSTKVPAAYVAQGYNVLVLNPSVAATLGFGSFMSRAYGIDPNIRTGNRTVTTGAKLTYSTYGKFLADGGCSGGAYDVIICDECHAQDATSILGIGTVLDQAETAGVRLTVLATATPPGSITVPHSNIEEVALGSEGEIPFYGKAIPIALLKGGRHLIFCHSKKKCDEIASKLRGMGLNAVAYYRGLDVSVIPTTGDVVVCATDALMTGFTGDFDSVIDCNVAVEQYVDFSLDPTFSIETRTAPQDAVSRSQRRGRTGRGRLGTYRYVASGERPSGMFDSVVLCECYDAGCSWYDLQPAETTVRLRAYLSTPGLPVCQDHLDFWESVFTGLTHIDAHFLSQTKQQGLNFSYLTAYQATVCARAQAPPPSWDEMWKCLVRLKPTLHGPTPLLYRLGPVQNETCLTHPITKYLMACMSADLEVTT
# [3] = biological target: T2, HCV genotype 2a-c NS3-NS4A protease (UniProt P26660); assay: Inhibition constant (Ki) determination, genotype 2a-c; format: biochemical; conditions: read-out: Ki HCV genotype 2a-c
# T2 sequence (P26660 1031-1661): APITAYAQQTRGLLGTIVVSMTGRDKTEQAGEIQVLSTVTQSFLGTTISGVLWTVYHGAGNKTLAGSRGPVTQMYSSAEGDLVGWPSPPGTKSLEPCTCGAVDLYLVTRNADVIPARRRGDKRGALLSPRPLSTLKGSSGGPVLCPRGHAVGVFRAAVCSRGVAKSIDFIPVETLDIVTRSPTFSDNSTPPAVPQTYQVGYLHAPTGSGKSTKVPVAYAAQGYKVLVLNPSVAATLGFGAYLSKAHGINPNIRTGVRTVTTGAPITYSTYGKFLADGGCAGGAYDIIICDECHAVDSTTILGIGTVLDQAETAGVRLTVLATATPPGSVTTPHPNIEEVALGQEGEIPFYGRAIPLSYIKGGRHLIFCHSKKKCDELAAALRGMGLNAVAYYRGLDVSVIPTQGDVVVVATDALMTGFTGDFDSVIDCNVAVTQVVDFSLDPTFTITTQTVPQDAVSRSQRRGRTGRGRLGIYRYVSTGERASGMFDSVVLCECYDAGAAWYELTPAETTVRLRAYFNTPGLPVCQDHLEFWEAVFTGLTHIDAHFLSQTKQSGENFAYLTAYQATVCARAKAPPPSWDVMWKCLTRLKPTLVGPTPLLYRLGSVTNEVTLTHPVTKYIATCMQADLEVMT
# [4] = tested on: HCV replicon-containing, Huh-7-derived cell lines; conditions: human
# [5] = biological target: T3, HCV genotype 1b NS3-NS4A protease (UniProt P26662); assay: Inhibition constant (Ki) determination and mode of inhibition, steady-state velocity, genotype 1b; format: biochemical
# T3 construct: fused on or other part: 28 extra N-terminal residues with a hexahistidine tag and an rTEV cleavage site
# Description: The fluorogenic depsipeptide substrate anthranilyl-D(d)EIVP-Nva[C(O)—O] AMY(3-N2)TW—OH (SEQ ID No.13) was used to assess the mechanism of inhibition and the inhibition constants of the compound (IV) against HCV NS3-NS4A proteases. It was cleaved between the norvaline and the alanine residues. The substrate working solution was prepared in DMSO at the concentration of 200 μM from the substrate stock solution (2 mM in DMSO stored at —20° C.). The final substrate concentration in the assay varied from 0.25 to 8 μM. The inhibition constant (Ki) for compound (IV) was determined using a steady-state velocity method (Morrisson et al. 1985). The protease activity was determined by monitoring the fluorescence change associated with the cleavage of the internally quenched fluorogenic substrate using a SLM-AMINCO® 8100 spectrofluorometer ([…]). The cleavage reaction was monitored in the presence of 0.25 to 8 μM of substrate, 0.3 nM of HCV 1a or 1b NS3-NS4A heterodimer protein and various concentrations of the test compound IV in 50 mM Tris-HCl, pH 8.0, 0.25M sodium citrate, 0.01% n-dodecyl-β-D-maltoside, 1 mM TCEP. The steady-state analysis of inhibition of the HCV genotype 1a and 1b NS3-NS4A heterodimer proteases were performed using the Dixon and Cornish-Bowden graphical methods. […]
# T3 sequence (P26662 1027-1657): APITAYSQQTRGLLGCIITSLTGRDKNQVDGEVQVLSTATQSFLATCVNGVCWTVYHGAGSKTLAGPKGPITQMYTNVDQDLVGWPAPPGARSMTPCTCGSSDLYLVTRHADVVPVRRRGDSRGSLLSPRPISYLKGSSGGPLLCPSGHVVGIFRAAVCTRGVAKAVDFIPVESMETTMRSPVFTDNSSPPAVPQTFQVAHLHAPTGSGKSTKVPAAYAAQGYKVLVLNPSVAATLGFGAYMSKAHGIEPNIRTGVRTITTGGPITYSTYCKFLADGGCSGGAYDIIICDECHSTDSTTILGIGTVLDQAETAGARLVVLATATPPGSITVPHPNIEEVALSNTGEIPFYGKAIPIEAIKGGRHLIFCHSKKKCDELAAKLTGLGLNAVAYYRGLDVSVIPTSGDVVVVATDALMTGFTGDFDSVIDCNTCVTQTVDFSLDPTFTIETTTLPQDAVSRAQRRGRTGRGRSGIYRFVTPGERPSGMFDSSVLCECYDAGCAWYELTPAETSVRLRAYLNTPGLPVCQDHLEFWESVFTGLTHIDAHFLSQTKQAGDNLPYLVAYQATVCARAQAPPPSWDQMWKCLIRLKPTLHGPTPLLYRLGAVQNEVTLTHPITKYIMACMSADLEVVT
SMILES,inhibition of GBV-B replication (FIG. 7) [1],"reduction in the viral RNA levels ([1]; 10 μM, 7 days post infection, g.e./μg RNA)",Ki [2],Ki [3],Cytotoxicity (concentration at which not observed) [4],"mode of inhibition, HCV genotype 1b NS3-NS4A protease ([5]; Dixon and Cornish-Bowden plots, GraFit)","Ki ([5]; read-out: Ki HCV genotype 1b NS3-NS4A protease, steady-state velocity analysis)"
COc1ccc2c(O[C@@H]3C[C@H]4C(=O)N[C@]5(C(=O)O)CC5/C=C\CCCCC[C@H](NC(=O)OC(C)(C)C)C(=O)N4C3)cc(-c3csc(NC(C)=O)n3)nc2c1 (stereo partly shown) [III],dose-dependent inhibition,> 3 log,–,–,–,–,–
COc1ccc2c(O[C@@H]3C[C@H]4C(=O)N[C@]5(C(=O)O)CC5/C=C\CCCCC[C@H](NC(=O)OC5CCCC5)C(=O)N4C3)cc(-c3csc(NC(C)C)n3)nc2c1 (stereo partly shown) [IV],–,–,90 nM,86 nM,higher than 1000 nM,competitive,0.66 nM
